According to ChEMBL document CHEMBL5257024, “Synthesis of α,β-Unsaturated Carbonyl-Based Compounds, Oxime and Oxime Ether Analogs as Potential Anticancer Agents for Overcoming Cancer Multidrug Resistance by Modulation of Efflux Pumps in Tumor Cells” (J Med Chem, 2016):

Tests used:
[1] = Cytotoxicity against human MCF-10A cells assessed as cell viability incubated for 96 hrs by MTT assay; type: toxicity, cell-based; design: concentration or dose not given beside the values; conditions: read-out: Activity
[2] = tested on: MIA PaCa-2; assay: Antiproliferative activity against human MIA PaCa-2 cells assessed as inhibition of cell growth incubated for 48 hrs by propidium iodide staining based fluorometer assay; type: functional; conditions: MIA PaCa-2, 48 h
[3] = tested on: MCF7; assay: Antiproliferative activity against human MCF7 cells assessed as inhibition of cell growth incubated for 48 hrs by propidium iodide staining based fluorometer assay; type: functional; conditions: MCF7, 48 h
[4] = tested on: A549; assay: Antiproliferative activity against human A549 cells assessed as inhibition of cell growth incubated for 48 hrs by propidium iodide staining based fluorometer assay; type: functional; conditions: A549, 48 h
[5] = tested on: PANC-1; assay: cells; conditions: Homo sapiens, PANC-1, 48 h
Description: Antiproliferative activity against human PANC-1 cells assessed as inhibition of cell growth incubated for 48 hrs by propidium iodide staining based fluorometer assay

[6] = tested on: HT-29; assay: cells; conditions: Homo sapiens, HT-29, 48 h
Description: Antiproliferative activity against human HT-29 cells assessed as inhibition of cell growth incubated for 48 hrs by propidium iodide staining based fluorometer assay

[7] = tested on: NCI-H460; assay: cells; conditions: Homo sapiens, NCI-H460, 48 h
Description: Antiproliferative activity against human NCI-H460 cells assessed as inhibition of cell growth incubated for 48 hrs by propidium iodide staining based fluorometer assay

[8] = tested on: PC-3; assay: cells; conditions: Homo sapiens, PC-3, 48 h
Description: Antiproliferative activity against human PC-3 cells assessed as inhibition of cell growth incubated for 48 hrs by propidium iodide staining based fluorometer assay

Structure (SMILES)	viability at 96 h [1] [%]	IC50 [2] [µM]	IC50 [3] [µM]	IC50 [4] [µM]	IC50 [5] [µM]	IC50 [6] [µM]	IC50 [7] [µM]	IC50 [8] [µM]
COc1cc2c(cc1OC)C(=O)/C(=C/c1cc(OC)c(OC)c(OC)c1Br)CC2	98	2.4	2.8	2.2	2.6	2.8	2.2	2
COc1cccc(/C=C2\CCc3c(OC)cccc3C2=O)c1Cl	93	8.7	9	6.4	8.5	8.4	9	8.4
COc1cc(/C=C2\CCc3ccc(F)cc3C2=O)c(Br)c(OC)c1OC	93	8.9	10.1	8.2	8.5	9.6	8.9	10.3
COc1cc(/C=C2\CNC/C(=C\c3cc(OC)c(OC)c(OC)c3Br)C2=O)c(Br)c(OC)c1OC	96	4.3	4	4.4	4.2	4.5	4.9	4.8
COc1cc(/C=C2\CC(C)C/C(=C\c3cc(OC)c(OC)c(OC)c3Br)C2=O)c(Br)c(OC)c1OC (stereo not given)	91	1.4	1.3	1.8	1.6	1.8	1.2	1.1
CCN(CC)CCO/N=C1\C(=C\c2cc(OC)c(OC)c(OC)c2Br)CCc2ccc([N+](=O)[O-])cc21	97	4	4.9	4.3	4.2	4.5	4.6	4.4
COc1ccc(OC)c2c1CC/C(=C\c1ccc(OC)c(OC)c1Cl)C2=O	90	3.9	4.1	4.3	4.3	4	3.8	4.5
COc1ccc(/C=C2\CCc3ccc(Cl)cc3C2=O)c(Cl)c1OC	94	9.5	9.1	10.7	10.5	10.9	10.6	10.8
COc1cc(/C=C2\COC/C(=C\c3cc(OC)c(OC)c(OC)c3Br)C2=O)c(Br)c(OC)c1OC	92	4.6	4.3	4.1	4.9	4.2	5	4.6
COc1ccc(/C=C2\CN(Cc3ccccc3)C/C(=C\c3ccc(OC)c(OC)c3Cl)C2=O)c(Cl)c1OC	89	15.5	15.4	16.2	15.6	10.3	13.9	15.7
COc1cccc(/C=C2\CN(Cc3ccccc3)C/C(=C\c3cccc(OC)c3Cl)C2=O)c1Cl	89	17	17.6	15.4	17.5	15.9	14.1	18.7
COc1ccc(/C=C2\CNC/C(=C\c3ccc(OC)c(OC)c3Cl)C2=O)c(Cl)c1OC	92	6.2	6.4	7.5	6.5	6.6	7.2	7
COc1cccc(/C=C2\CCc3ccc(Cl)cc3C2=O)c1Cl	94	12.8	14.1	13.3	12.4	12.6	13.3	13.7
COc1cccc(/C=C2\CCc3ccc([N+](=O)[O-])cc3C2=O)c1Cl	95	3.4	3.3	3.6	3.5	3.5	3.1	3.1
COc1ccc(/C=C2\CCc3ccc([N+](=O)[O-])cc3C2=O)c(Cl)c1OC	90	1.7	2.3	1.9	1.9	1.9	1.8	1.6
COc1cc(/C=C2\CCC/C(=C\c3cc(OC)c(OC)c(OC)c3Br)C2=NO)c(Br)c(OC)c1OC	95	2.6	2.9	2.6	2.2	2.1	2.5	2.5
COc1cc(/C=C2\CCc3ccc(Cl)cc3C2=O)c(Br)c(OC)c1OC	90	10.4	12.9	10.7	10.2	9.9	10.7	10.2
COc1cccc(/C=C2\CN(C)C/C(=C\c3cccc(OC)c3Cl)C2=O)c1Cl	91	4.6	4.4	4	4.2	4.4	4	4.9
COc1cc(/C=C2\CN(C)C/C(=C\c3cc(OC)c(OC)c(OC)c3Br)C2=O)c(Br)c(OC)c1OC	92	1.9	1.9	1.3	1.8	1.1	1.8	1.6
COc1ccc(/C=C2\CCC/C(=C\c3ccc(OC)c(OC)c3Cl)C2=O)c(Cl)c1OC	90	4.2	4.7	3.9	4.2	3.7	4.1	5.2
COc1ccc(/C=C2\CCc3ccc(F)cc3C2=O)c(Cl)c1OC	95	9.6	9.8	10.9	9.8	9.4	10.6	9.3
COc1ccc(/C=C2\COC/C(=C\c3ccc(OC)c(OC)c3Cl)C2=O)c(Cl)c1OC	89	5.2	5.6	5.8	5.8	5.1	5.3	5.1
COc1cc(/C=C2\CCc3ccc(Br)cc3C2=O)c(Br)c(OC)c1OC	92	9	10.9	9.1	9.9	9.2	10.9	9.3
COc1cccc(/C=C2\COC/C(=C\c3cccc(OC)c3Cl)C2=O)c1Cl	88	8.7	7.3	8.4	8.9	8.8	7.4	8.3
COc1cccc(/C=C2\CC(C)c3ccccc3C2=O)c1Cl (stereo not given)	98	9.8	8.8	8.7	8.3	8.4	9.6	9.9
